Measured values taken from patent publication EP0908457B1, “3-(1,2-benzisothiazol- and isoxazol-5-Y1)-2,4(1H,3H)-pyrimidinedione or thione and 3-(1,2-benzisothiazol- and isoxazol-5-y1)-4(3H)-pyrimidinone or thione herbicidal agents” (BASF AKTIENGESELLSCHAFT, priority 1997, dated 1999).

Experiments:
[1] = system: Echinochloa oryzoides (Ard.) Fritsch.; test: Preemergence weed control under flooded paddy conditions, ECHORC (Watergrass (Calif.)); assay type: in vivo; settings: flooded paddy; for herbicidal effect rating, ECHORC: meaning of each grade not given here
Cyperus iria = test: Preemergence weed control under flooded paddy conditions, CYPIR (Rice Flatsedge); assay type: in vivo; settings: flooded paddy; for herbicidal effect rating, CYPIR: meaning of each grade not given here
[2] = system: Cyperus serotinus, Rottb.; test: Preemergence weed control under flooded paddy conditions, CYPSE (Flatsedge); assay type: in vivo; for herbicidal effect rating, CYPSE: meaning of each grade not given here
[3] = system: Monochoria vaginalis, Presl.; test: Preemergence weed control under flooded paddy conditions, MOOVA (Monochoria); assay type: in vivo; settings: flooded paddy; for herbicidal effect rating, MOOVA: meaning of each grade not given here
Sagittaria pygmaea, L. = test: Preemergence weed control under flooded paddy conditions, SAGPY (Arrowhead (Pygmaea)); assay type: in vivo; settings: flooded paddy; for herbicidal effect rating, SAGPY: meaning of each grade not given here
[4] = system: Oryza sativa, (L.) Tebonnet; test: Rice tolerance to post-transplant applications under flooded paddy conditions (Example 187), ORYSAT (Rice, Tebonnet); for herbicidal effect rating ORYSAT: meaning of each grade not given here
[5] = 0.0313 kg/ha, preemergence, rated three to four weeks after treatment
[6] = 0.0625 kg/ha, preemergence, rated three to four weeks after treatment
[7] = 0.1250 kg/ha, preemergence, rated three to four weeks after treatment
[8] = 0.2500 kg/ha, preemergence, rated three to four weeks after treatment
[9] = 0.0313 kg/ha, rated three to four weeks after treatment
[10] = 0.0625 kg/ha, rated three to four weeks after treatment
[11] = 0.1250 kg/ha, rated three to four weeks after treatment
[12] = 0.2500 kg/ha, rated three to four weeks after treatment
[13] = 0.0313 kg/ha, preemergence weeds, rated three to four weeks after treatment
[14] = 0.0625 kg/ha, preemergence weeds, rated three to four weeks after treatment
[15] = 0.1250 kg/ha, preemergence weeds, rated three to four weeks after treatment
[16] = 0.2500 kg/ha, preemergence weeds, rated three to four weeks after treatment
[17] = Rate 0.0320 kg/ha, preemergence, rated three to four weeks after treatment
[18] = Rate 0.0620 kg/ha, preemergence, rated three to four weeks after treatment
[19] = Rate 0.1250 kg/ha, preemergence, rated three to four weeks after treatment
[20] = Rate 0.2500 kg/ha, preemergence, rated three to four weeks after treatment
[21] = 0.0320 kg/ha, preemergence, rated three to four weeks after treatment
[22] = 0.0620 kg/ha, preemergence, rated three to four weeks after treatment
[23] = 0.0320 kg/ha, rated three to four weeks after treatment
[24] = 0.0620 kg/ha, rated three to four weeks after treatment
[25] = Rate 0.0320 kg/ha, preemergence, rated 3-4 weeks after treatment
[26] = Rate 0.0620 kg/ha, preemergence, rated 3-4 weeks after treatment
[27] = Rate 0.1250 kg/ha, preemergence, rated 3-4 weeks after treatment
[28] = Rate 0.2500 kg/ha, preemergence, rated 3-4 weeks after treatment
[29] = Rate 0.5000 kg/ha, preemergence, rated 3-4 weeks after treatment

SMILES: Cc1ccc(OCC(=O)OC(C)(C)C)c(-c2nsc3ccc(-n4c(=O)cc(C(F)(F)F)n(C)c4=O)cc23)c1 [Example 68, tert -Butyl {{2-{5-[3,6-dihydro-3-methyl-2,6-dioxo-4-(trifluoromethyl)-1(2H)-pyrimidinyl]-1,2-benzisothiazol-3-yl}-p-tolyl}oxy}acetate]
- herbicidal effect rating, ECHORC [1, 5]: 7.5
- herbicidal effect rating, ECHORC [1, 6]: 9.0
- herbicidal effect rating, ECHORC [1, 7]: 9.0
- herbicidal effect rating, ECHORC [1, 8]: 9.0
- herbicidal effect rating, CYPIR (Cyperus iria; [5]): 7.0
- herbicidal effect rating, CYPIR (Cyperus iria; [6]): 9.0
- herbicidal effect rating, CYPIR (Cyperus iria; [7]): 9.0
- herbicidal effect rating, CYPIR (Cyperus iria; [8]): 9.0
- herbicidal effect rating, CYPSE [2, 5]: 6.0
- herbicidal effect rating, CYPSE [2, 6]: 7.0
- herbicidal effect rating, CYPSE [2, 8]: 7.0
- herbicidal effect rating, MOOVA [3, 5]: 9.0
- herbicidal effect rating, MOOVA [3, 6]: 9.0
- herbicidal effect rating, MOOVA [3, 7]: 9.0
- herbicidal effect rating, MOOVA [3, 8]: 9.0
- herbicidal effect rating, SAGPY (Sagittaria pygmaea, L.; [5]): 0.0
- herbicidal effect rating, SAGPY (Sagittaria pygmaea, L.; [6]): 0.0
- herbicidal effect rating, SAGPY (Sagittaria pygmaea, L.; [7]): 2.0
- herbicidal effect rating, SAGPY (Sagittaria pygmaea, L.; [8]): 2.0
- herbicidal effect rating, ORYSAT (rice tolerance) [4, 9]: 0.5
- herbicidal effect rating, ORYSAT (rice tolerance) [4, 10]: 1.0
- herbicidal effect rating, ORYSAT (rice tolerance) [4, 11]: 1.5
- herbicidal effect rating, ORYSAT (rice tolerance) [4, 12]: 1.0

SMILES: Cn1c(C(F)(F)F)cc(=O)n(-c2ccc3snc(NS(C)(=O)=O)c3c2)c1=O [Example 117, N-{5-[3,6-Dihydro-3-methyl-2,6-dioxo-4-(trifluoromethyl)-1(2H)-pyrimidinyl]-1,2-benzisothiazol-3-yl}methanesulfonamide]
- herbicidal effect rating, ECHORC [1, 13]: 0.0
- herbicidal effect rating, ECHORC [1, 14]: 0.0
- herbicidal effect rating, ECHORC [1, 15]: 0.0
- herbicidal effect rating, ECHORC [1, 16]: 0.0
- herbicidal effect rating, CYPIR (Cyperus iria; [13]): 0.0
- herbicidal effect rating, CYPIR (Cyperus iria; [14]): 0.0
- herbicidal effect rating, CYPIR (Cyperus iria; [15]): 0.0
- herbicidal effect rating, CYPIR (Cyperus iria; [16]): 0.0
- herbicidal effect rating, CYPSE [2, 13]: 0.0
- herbicidal effect rating, CYPSE [2, 14]: 0.0
- herbicidal effect rating, CYPSE [2, 15]: 0.0
- herbicidal effect rating, CYPSE [2, 16]: 0.0
- herbicidal effect rating, MOOVA [3, 13]: 0.0
- herbicidal effect rating, MOOVA [3, 14]: 0.0
- herbicidal effect rating, MOOVA [3, 15]: 2.0
- herbicidal effect rating, MOOVA [3, 16]: 4.0
- herbicidal effect rating, SAGPY (Sagittaria pygmaea, L.; [13]): 0.0
- herbicidal effect rating, SAGPY (Sagittaria pygmaea, L.; [14]): 0.0
- herbicidal effect rating, SAGPY (Sagittaria pygmaea, L.; [15]): 0.0
- herbicidal effect rating, SAGPY (Sagittaria pygmaea, L.; [16]): 0.0
- herbicidal effect rating, ORYSAT (rice tolerance) [4, 9]: 0.0
- herbicidal effect rating, ORYSAT (rice tolerance) [4, 10]: 0.0
- herbicidal effect rating, ORYSAT (rice tolerance) [4, 11]: 0.0
- herbicidal effect rating, ORYSAT (rice tolerance) [4, 12]: 0.0

SMILES: CNC(=O)OCc1nsc2ccc(-n3c(=O)cc(C(F)(F)F)n(C)c3=O)cc12 [Example 374, 2,4(1H,3H)-Pyrimidinedione, 3-[3-(hydroxymethyl)1,2-benzisothiazol-5-yl]-1-methyl-6-(trifluoromethyl)-, methylcarbamate (ester)]
- herbicidal effect rating, ECHORC [1, 17]: 3.0
- herbicidal effect rating, ECHORC [1, 18]: 3.0
- herbicidal effect rating, ECHORC [1, 19]: 4.0
- herbicidal effect rating, ECHORC [1, 20]: 6.0
- herbicidal effect rating, CYPIR (Cyperus iria; [17]): 6.0
- herbicidal effect rating, CYPIR (Cyperus iria; [18]): 9.0
- herbicidal effect rating, CYPIR (Cyperus iria; [19]): 9.0
- herbicidal effect rating, CYPIR (Cyperus iria; [20]): 9.0
- herbicidal effect rating, CYPSE [2, 17]: 0.0
- herbicidal effect rating, CYPSE [2, 18]: 0.0
- herbicidal effect rating, CYPSE [2, 19]: 0.0
- herbicidal effect rating, CYPSE [2, 20]: 5.0
- herbicidal effect rating, MOOVA [3, 17]: 9.0
- herbicidal effect rating, MOOVA [3, 18]: 9.0
- herbicidal effect rating, MOOVA [3, 19]: 9.0
- herbicidal effect rating, MOOVA [3, 20]: 9.0
- herbicidal effect rating, SAGPY (Sagittaria pygmaea, L.; [17]): 2.0
- herbicidal effect rating, SAGPY (Sagittaria pygmaea, L.; [18]): 3.0
- herbicidal effect rating, SAGPY (Sagittaria pygmaea, L.; [19]): 6.0
- herbicidal effect rating, SAGPY (Sagittaria pygmaea, L.; [20]): 9.0
- herbicidal effect rating ORYSAT ([4]; Rate 0.0320 kg/ha, rated three to four weeks after treatment): 4.0
- herbicidal effect rating ORYSAT ([4]; Rate 0.0620 kg/ha, rated three to four weeks after treatment): 4.0
- herbicidal effect rating ORYSAT ([4]; Rate 0.1250 kg/ha, rated three to four weeks after treatment): 6.0
- herbicidal effect rating ORYSAT ([4]; Rate 0.2500 kg/ha, rated three to four weeks after treatment): 7.0

SMILES: Cn1c(C(F)(F)F)cc(=O)n(-c2ccc3snc(C(C)(C)C(=O)OCc4ccco4)c3c2)c1=O [Example 487, 1,2-Benzisothiazole-3-acetic acid, 5-[3,6-dihydro-3-methyl-2,6-dioxo-4-(trifluoromethyl)-1(2H)-pyrimidinyl]-alpha,alpha-dimethyl-, furfuryl ester]
- ECHORC herbicidal rating [1, 21]: 6.0
- ECHORC herbicidal rating [1, 22]: 7.0
- ECHORC herbicidal rating [1, 7]: 7.0
- ECHORC herbicidal rating [1, 8]: 9.0
- CYPIR herbicidal rating (Cyperus iria; [21]): 4.0
- CYPIR herbicidal rating (Cyperus iria; [22]): 5.0
- CYPIR herbicidal rating (Cyperus iria; [7]): 6.0
- CYPIR herbicidal rating (Cyperus iria; [8]): 9.0
- CYPSE herbicidal rating [2, 8]: 3.0
- MOOVA herbicidal rating [3, 21]: 7.0
- MOOVA herbicidal rating [3, 22]: 9.0
- MOOVA herbicidal rating [3, 7]: 9.0
- MOOVA herbicidal rating [3, 8]: 9.0
- SAGPY herbicidal rating (Sagittaria pygmaea, L.; [21]): 4.0
- SAGPY herbicidal rating (Sagittaria pygmaea, L.; [22]): 5.0
- SAGPY herbicidal rating (Sagittaria pygmaea, L.; [7]): 6.0
- SAGPY herbicidal rating (Sagittaria pygmaea, L.; [8]): 7.0
- ORYSAT herbicidal rating (rice tolerance) [4, 23]: 2.0
- ORYSAT herbicidal rating (rice tolerance) [4, 24]: 3.0
- ORYSAT herbicidal rating (rice tolerance) [4, 11]: 6.0
- ORYSAT herbicidal rating (rice tolerance) [4, 12]: 7.0

SMILES: Cn1c(C(F)(F)F)cc(=O)n(-c2ccc3snc(C(=O)NO)c3c2)c1=O [Example 471, 1,2-Benzisothiazole-3-carbohydroxamic acid, 5-[3,6-dihydro-3-methyl-2,6-dioxo-4-(trifluoromethyl)-1(2H)-pyrimidinyl]-]
- ECHORC herbicidal rating [1, 21]: 0.0
- ECHORC herbicidal rating [1, 22]: 3.0
- ECHORC herbicidal rating [1, 7]: 6.0
- ECHORC herbicidal rating [1, 8]: 9.0
- CYPIR herbicidal rating (Cyperus iria; [21]): 6.0
- CYPIR herbicidal rating (Cyperus iria; [22]): 6.0
- CYPIR herbicidal rating (Cyperus iria; [7]): 9.0
- CYPIR herbicidal rating (Cyperus iria; [8]): 9.0
- CYPSE herbicidal rating [2, 21]: 3.0
- CYPSE herbicidal rating [2, 8]: 7.0
- MOOVA herbicidal rating [3, 21]: 6.0
- MOOVA herbicidal rating [3, 22]: 7.0
- MOOVA herbicidal rating [3, 7]: 9.0
- MOOVA herbicidal rating [3, 8]: 9.0
- SAGPY herbicidal rating (Sagittaria pygmaea, L.; [21]): 0.0
- SAGPY herbicidal rating (Sagittaria pygmaea, L.; [22]): 3.0
- SAGPY herbicidal rating (Sagittaria pygmaea, L.; [7]): 5.0
- SAGPY herbicidal rating (Sagittaria pygmaea, L.; [8]): 7.0
- ORYSAT herbicidal rating (rice tolerance) [4, 23]: 2.0
- ORYSAT herbicidal rating (rice tolerance) [4, 24]: 3.0
- ORYSAT herbicidal rating (rice tolerance) [4, 11]: 5.0
- ORYSAT herbicidal rating (rice tolerance) [4, 12]: 5.0

SMILES: Cc1ccc(OCC(N)=O)c(-c2nsc3ccc(-n4c(=O)cc(C(F)(F)F)n(C)c4=O)cc23)c1 [Example 539, Acetamide, 2-{{2-{5-[3,6-dihydro-3-methyl-2,6-dioxo-4-(trifluoromethyl)-1(2H)-pyrimidinyl]-1,2-benzisothiazol-3-yl}-p-tolyl}oxy}-]
- herbicidal effect rating, ECHORC [1, 25]: 2.1
- herbicidal effect rating, ECHORC [1, 26]: 3.0
- herbicidal effect rating, ECHORC [1, 27]: 4.7
- herbicidal effect rating, ECHORC [1, 28]: 7.0
- herbicidal effect rating, ECHORC [1, 29]: 9.0
- herbicidal effect rating, CYPIR (Cyperus iria; [25]): 0.0
- herbicidal effect rating, CYPIR (Cyperus iria; [26]): 2.0
- herbicidal effect rating, CYPIR (Cyperus iria; [27]): 6.0
- herbicidal effect rating, CYPIR (Cyperus iria; [28]): 8.0
- herbicidal effect rating, CYPIR (Cyperus iria; [29]): 9.0
- herbicidal effect rating, CYPSE [2, 25]: 0.0
- herbicidal effect rating, CYPSE [2, 26]: 0.0
- herbicidal effect rating, CYPSE [2, 27]: 0.0
- herbicidal effect rating, CYPSE [2, 28]: 0.0
- herbicidal effect rating, CYPSE [2, 29]: 2.0
- herbicidal effect rating, MOOVA [3, 25]: 8.0
- herbicidal effect rating, MOOVA [3, 26]: 9.0
- herbicidal effect rating, MOOVA [3, 27]: 9.0
- herbicidal effect rating, MOOVA [3, 28]: 9.0
- herbicidal effect rating, MOOVA [3, 29]: 9.0
- herbicidal effect rating, SAGPY (Sagittaria pygmaea, L.; [25]): 0.0
- herbicidal effect rating, SAGPY (Sagittaria pygmaea, L.; [26]): 0.0
- herbicidal effect rating, SAGPY (Sagittaria pygmaea, L.; [27]): 1.0
- herbicidal effect rating, SAGPY (Sagittaria pygmaea, L.; [28]): 4.0
- herbicidal effect rating, SAGPY (Sagittaria pygmaea, L.; [29]): 9.0
- herbicidal effect rating ORYSAT ([4]; Rate 0.0320 kg/ha, rated 3-4 weeks after treatment): 0.0
- herbicidal effect rating ORYSAT ([4]; Rate 0.0620 kg/ha, rated 3-4 weeks after treatment): 1.0
- herbicidal effect rating ORYSAT ([4]; Rate 0.1250 kg/ha, rated 3-4 weeks after treatment): 1.0
- herbicidal effect rating ORYSAT ([4]; Rate 0.2500 kg/ha, rated 3-4 weeks after treatment): 1.0
- herbicidal effect rating ORYSAT ([4]; Rate 0.5000 kg/ha, rated 3-4 weeks after treatment): 5.0
